Results on 12 molecules are retold here after patent US6177438A, “Morphinan derivatives and pharmaceutical use thereof” (priority 1993, dated 2001).

Structures are written as SMILES. pEC50, pIC50: −log10 of the molar value. Where a name gives a salt, the structure may show the parent alone. Read-outs that look alike come from different tables or passages of the source.

The subject of series [1] is cultured nerve cells (cerebral cortex). Nature of the series: cells. The note with it: Rattus norvegicus, Cerebral cortex neuron, 24 h, read-out: ED50 (protection against glutamic acid toxicity).
The test system is the same in series [2]. The settings on record: 10 mM glutamic acid, 24 hours.
Series [3] relates to extracted mouse vas deferens preparation. Nature of the series: Opioid activity test using an extracted mouse vas deferens preparation (suppression of electrically induced contractions). Further details: species or system male ddy mouse. The note with it: electrical stimulus 0.1 Hz, 37° C. Summed up:
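Male ddY mouse vas deferens in Krebs-Henseleit at 37° C, 5% CO2/95% O2, field-stimulated at 0.1 Hz, 5.0 ms; isometric contractions recorded. After adding naloxone, NTI or norBNI, test compound was added cumulatively after ~20 min; Ke derived from the difference in agonist efficacies.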

The target in series [4] is T1, δ receptor (Mus musculus, UniProt P32300).
T1 construct: The vas deferens extracted from the animal was suspended in a Magnus tube; from tissue; host or cells: mouse (male ddy) vas deferens
Also noted: species or system male ddy mouse.

The target in series [5] is T2, μ receptor (Mus musculus, UniProt P42866).
T2 construct: naloxone as mu antagonist (printed 'agonist')
Nature of the series: Opioid activity test using an extracted mouse vas deferens preparation, Ke with naloxone. Also noted: species or system male ddy mouse. The settings on record: naloxone added. The procedure:
A male ddy mouse was used in this test. The vas deferens extracted from the animal was suspended in a Magnus tube filled with Krebes-Henseleit solution (NaCl 118 mM; KCl 4.7 mM; CaCl2 2.5 mM; KH2 PO4 1.1 mM; NaHCO3 25 mM; Glucose 11 mM) warmed to 37° C. and ventilated with 5% carbon dioxide and 95% oxygen. Electrical stimulus was performed at 0.1 Hz for 5.0 ms by means of ring-shaped platinum electrodes located above and below. Tissue contractions were recorded on a polygraph using an isometric transducer.
After adequately washing with nutrient solution and the contraction reaction stabilized, the μ agonist, naloxone, the δ agonist, NTI, or the κ agonist, norBNI, was added after which the test compound was again cumulatively added after roughly 20 minutes. The Ke value was calculated using the following calculation formula from the difference in the efficacies of both agonists.
Ke=[Conc. of added agonist]/(IC50 ratio-1)
IC50 ratio=IC50 in the presence of agonist/IC50 in the absence of agonist

Series [6] has as its system acetic acid-induced writhing in ddy mice. Nature of the series: animal or person. The class given is in vivo, 5 week old ddy mice. The settings on record: for ED50: Mus musculus, sc, s.c. 15 minutes before acetic acid, read-out: ED50; for analgesic activity: s.c., in words. As for the experimental part: 5 week old ddy mice were used in this test. After intraperitoneal administration of 0.1 ml of 0.6% aqueous acetic acid per 10 g of body weight, the number of writhing reactions that occurred in 10 minutes starting 10 minutes after administration was evaluated for the indicator. The test drug was administered subcutaneously into the backs of the animals 15 minutes before administration of acetic acid.

Series [7] has as its target T3, κ receptor (Mus musculus, UniProt P33534).
T3 construct: from tissue; host or cells: mouse (male ddy) vas deferens
Nature of the series: Opioid activity test using an extracted mouse vas deferens preparation, Ke with norBNI. Also noted: species or system male ddy mouse. The note with it: for receptor selectivity of agonist (κ): in words; for Ke, norBNI: κ, norBNI added.

The nature of series [8]: Diuretic action (urine output for 5 hours after physiological saline loading in rats). In kind it is in vivo, male Wistar rats. The note with it: Rattus norvegicus, sc, 5 hours after saline 20 ml/kg p.o.; for ED (200% urine output): dose giving urine output of 200 (non-dosed group = 100); for ED (500% urine output): dose giving urine output of 500 (non-dosed group = 100). Summed up:
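Doses reported as ED200/ED500, i.e. those raising 5 h urine output to 200 or 500 versus undosed rats set at 100. Subcutaneous dosing preceded an oral 20 ml/kg saline load by 30 min; male Wistar rats, 7-8 weeks, deprived of water 1 h beforehand.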

The mark [9] stands for this setting: mouse vas deferens, δ, NTI added.

As a reminder, the pIC50 is the negative decadic logarithm of the IC50, by convention in mol/L. A high value points to a small IC50. As a reminder, the ED50 is the dose at which the effect has come halfway, by size or by number of responders.

T3 sequence (P33534 whole entry): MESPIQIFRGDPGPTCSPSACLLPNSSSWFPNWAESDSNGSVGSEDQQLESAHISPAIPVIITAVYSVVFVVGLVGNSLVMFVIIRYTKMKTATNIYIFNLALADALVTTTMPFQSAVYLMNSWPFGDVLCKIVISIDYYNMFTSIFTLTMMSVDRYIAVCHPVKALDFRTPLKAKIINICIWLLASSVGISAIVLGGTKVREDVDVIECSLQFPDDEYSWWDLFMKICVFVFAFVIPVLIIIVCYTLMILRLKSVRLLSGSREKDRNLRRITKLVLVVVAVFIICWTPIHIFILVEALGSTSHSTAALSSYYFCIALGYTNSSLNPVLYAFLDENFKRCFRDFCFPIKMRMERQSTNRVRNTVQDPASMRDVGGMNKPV
T1 sequence (P32300 whole entry): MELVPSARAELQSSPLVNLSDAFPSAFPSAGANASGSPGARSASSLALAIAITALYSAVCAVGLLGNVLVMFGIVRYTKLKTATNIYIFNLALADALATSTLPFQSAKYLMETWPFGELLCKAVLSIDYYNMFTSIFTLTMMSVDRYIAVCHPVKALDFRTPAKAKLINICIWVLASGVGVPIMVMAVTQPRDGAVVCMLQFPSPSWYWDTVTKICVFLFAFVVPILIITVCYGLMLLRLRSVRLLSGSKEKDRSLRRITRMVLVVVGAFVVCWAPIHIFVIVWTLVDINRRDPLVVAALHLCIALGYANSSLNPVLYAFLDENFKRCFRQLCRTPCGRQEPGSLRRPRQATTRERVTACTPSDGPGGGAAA
T2 sequence (P42866 whole entry): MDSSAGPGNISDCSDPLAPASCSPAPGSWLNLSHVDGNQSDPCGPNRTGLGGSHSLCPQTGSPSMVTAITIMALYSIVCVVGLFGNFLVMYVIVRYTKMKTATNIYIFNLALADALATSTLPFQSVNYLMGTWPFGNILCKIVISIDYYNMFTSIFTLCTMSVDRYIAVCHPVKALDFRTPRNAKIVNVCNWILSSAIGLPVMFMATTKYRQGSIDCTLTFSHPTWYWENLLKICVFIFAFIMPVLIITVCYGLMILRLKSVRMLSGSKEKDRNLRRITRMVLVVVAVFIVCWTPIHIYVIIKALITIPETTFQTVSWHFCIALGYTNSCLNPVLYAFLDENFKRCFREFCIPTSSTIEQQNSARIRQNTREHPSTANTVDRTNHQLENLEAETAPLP

Regarding `CN(Cc1ccccc1)[C@@H]1CC[C@@]2(O)[C@H]3Cc4ccc(O)c5c4[C@@]2(CCN3CC2CC2)[C@H]1O5` [Compound 8, 6β-(N-Benzyl)methylamino-17-cyclopropylmethyl-4,5α-epoxy-3,14β-dihydroxymorphinan], the pEC50 in series [1] was 5.24. Further, the “Protective action against cytotoxicity caused by glutamic acid (in words)” value (shortened to “Protective action”) in series [2] is “clearly demonstrated action that protects nerve cells from cytotoxicity caused by glutamic acid”.
Take `CO[C@@H](C(=O)N(C)[C@H]1CC[C@@]2(O)[C@H]3Cc4ccc(O)c5c4[C@@]2(CCN3CC2CC2)[C@H]1O5)c1ccccc1` [Compound 30, 17-cyclopropylmethyl-3,14β-dihydroxy-4,5α-epoxy-6α-[(R)-N-methylmethoxyphenylacetamido]morphinan.cndot.hydrochloride]: the pEC50 in series [1] is 5.10. Moreover, in series [2], the “Protective action” value was “clearly demonstrated action that protects nerve cells from cytotoxicity caused by glutamic acid”.
The like results for `O=C(Cc1ccc(Cl)c(Cl)c1)N[C@H]1CC[C@@]2(O)[C@H]3Cc4ccc(O)c5c4[C@@]2(CCN3CC2CC2)[C@H]1O5` [Compound 52, 17-cyclopropylmethyl-4,5α-epoxy-3,14β-dihydroxy-6α-(3,4-dichlorophenylacetoamido)morphinan.cndot.hydrochloride] were, in that order, 5.77 and “clearly demonstrated action that protects nerve cells from cytotoxicity caused by glutamic acid”.
Regarding `COc1cccc(/C=C/C(=O)N(C)[C@@H]2CC[C@@]3(O)[C@H]4Cc5ccc(O)c6c5[C@@]3(CCN4CC3CC3)[C@H]2O6)c1` [Compound 63, 17-cyclopropylmethyl-3,14β-dihydroxy-4,5α-epoxy-6β-(N-methyl-3-methoxycinnamamido)morphinan.cndot.tartrate], the pIC50 in series [3] was 9.13. Moreover, the “Ke, NTI” value in series [4] (setting [9]) is on record as 96.9 nM. For the same molecule, the “Ke, Naloxone” value in series [5] is recorded as 60.9 nM. Further, in series [6], the ED50 came out at 0.0011 mg/kg and the analgesic activity result was “particularly strong analgesic activity”. Further, in series [7], the “receptor selectivity of agonist (κ)” value was “selective agonists for κ receptors” and the “Ke, norBNI” value turned out to be 1.60 nM. In series [8], this molecule registered an ED (200% urine output) of 0.0038 mg/kg and an ED (500% urine output) of 0.309 mg/kg.
Turning to `CN(C(=O)/C=C/c1ccoc1)[C@H]1CC[C@@]2(O)[C@H]3Cc4ccc(O)c5c4[C@@]2(CCN3CC2CC2)[C@H]1O5` [Compound 89, 17-cyclopropylmethyl-3,14β-dihydroxy-4,5α-epoxy-6α-[N-methyl-trans-3-(3-furyl)acrylamido]morphinan.cndot.tartrate], in series [3], the pIC50 is 10.03. In addition, in series [4], the “Ke, NTI” value turned out to be 15.6 nM. Besides, in series [5], the “Ke, Naloxone” value was found to be 18.3 nM. The 50% effective dose (ED50) in series [6] was determined as 0.00471 mg/kg. Also, in series [7], the “receptor selectivity of agonist (κ)” value is “selective agonists for κ receptors” and the “Ke, norBNI” value is on record as 0.85 nM. In series [8], this molecule showed an ED (200% urine output) of 0.0012 mg/kg and an ED (500% urine output) of 0.0162 mg/kg.
`CN(C(=O)/C=C/c1cccc(F)c1)[C@H]1CC[C@@]2(O)[C@H]3Cc4ccc(O)c5c4[C@@]2(CCN3CC2CC2)[C@H]1O5` [Compound 96, 17-cyclopropylmethyl-3,14β-dihydroxy-4,5α-epoxy-6α-(N-methyl-3-fluorocinnamamido)morphinan.cndot.tartrate] showed a pIC50 in series [3] of 9.46. Further, the “Ke, NTI” value in series [4] (setting [9]) worked out at 1.61 nM. The “Ke, Naloxone” value in series [5] came to 32.5 nM. Further, in series [6], the ED50 came out at 0.00086 mg/kg and the analgesic activity entry is given as “particularly strong analgesic activity”. Moreover, the “Ke, norBNI” value in series [7] came out at 4.21 nM. In series [8], this molecule gave an ED (200% urine output) of 0.0013 mg/kg and an ED (500% urine output) of 0.0549 mg/kg.
For `CN(C(=O)/C=C/c1cccc([N+](=O)[O-])c1)[C@H]1CC[C@@]2(O)[C@H]3Cc4ccc(O)c5c4[C@@]2(CCN3CC2CC2)[C@H]1O5` [Compound 97, 17-cyclopropylmethyl-3,14β-dihydroxy-4,5α-epoxy-6α-(N-methyl-3-nitrocinnamamido)morphinan.cndot.phosphate], the negative-log IC50 (pIC50) in series [3] is 9.61. Also, in series [4] (mouse vas deferens, in words), the “receptor selectivity of agonist (δ)” value is listed as “selective agonists for δ receptors”. The “Ke, NTI” value in series [4] (setting [9]) was determined as 2.92 nM. The “Ke, Naloxone” value in series [5] is recorded as 163 nM. The ED50 in series [6] came out at 0.0019 mg/kg. Besides, the “Ke, norBNI” value in series [7] is 13.9 nM. Moreover, in series [8], the ED (200% urine output) is 0.0045 mg/kg and the ED (500% urine output) was determined as 0.0939 mg/kg.
As to `CN(C(=O)Cc1ccc2ccccc2c1)[C@@H]1CC[C@@]2(O)[C@H]3Cc4ccc(O)c5c4[C@@]2(CCN3CC2CC2)[C@H]1O5` [Compound 112, 17-cyclopropylmethyl-3,14β-dihydroxy-4,5α-epoxy-6β-(N-methyl-2-naphthylacetamido)morphinan.cndot.hydrochloride], the pEC50 in series [1] was 5.37. Besides, in series [2], the “Protective action” value is on record as “clearly demonstrated action that protects nerve cells from cytotoxicity caused by glutamic acid”.
`CN(C(=O)Cc1cccc(C(F)(F)F)c1)[C@@H]1CC[C@@]2(O)[C@H]3Cc4ccc(O)c5c4[C@@]2(CCN3CC2CC2)[C@H]1O5` [Compound 116, 17-cyclopropylmethyl-3,14β-dihydroxy-4,5α-epoxy-6β-(N-methyl-3-trifluoromethylphenylacetamido)morphinan.cndot.hydrochloride]: in series [1], the pEC50 was 5.63. The “Protective action” value in series [2] is on record as “clearly demonstrated action that protects nerve cells from cytotoxicity caused by glutamic acid”.
In series [3], `CC(=O)Oc1ccc2c3c1O[C@H]1[C@H](N(C)C(=O)/C=C/c4cccc(C(F)(F)F)c4)CC[C@@]4(O)[C@@H](C2)N(CC2CC2)CC[C@]314` [Compound 141, 17-cyclopropylmethyl-3-acetoxy-14β-hydroxy-4,5α-epoxy-6β-(N-methyl-3-trifluoromethylcinnamamido)morphinan.cndot.tartrate] showed a pIC50 of 9.80. Moreover, the “Ke, NTI” value in series [4] (setting [9]) is reported as 184 nM. Also, the “Ke, Naloxone” value in series [5] was 142 nM. For the same molecule, the 50% effective dose (ED50) in series [6] was determined as 0.01 mg/kg. Also, in series [7], the “receptor selectivity of agonist (κ)” value was “selective agonists for κ receptors” and the “Ke, norBNI” value was 1.39 nM. In series [8], this molecule displayed an ED (200% urine output) of 0.0319 mg/kg and an ED (500% urine output) of 3.45 mg/kg.
For `CN(C(=O)CCCc1ccccc1)[C@@H]1CC[C@@]2(O)[C@H]3Cc4ccc(O)c5c4[C@@]2(CCN3CC2CC2)[C@H]1O5` [Compound 150, 17-cyclopropylmethyl-4,5α-epoxy-3,14β-dihydroxy-6β-(N-methyl-4-phenylbutanoylamido)morphinan tartrate], the negative-log IC50 (pIC50) in series [3] is 8.78. In series [4] (setting [9]), the “Ke, NTI” value was determined as 55.6 nM. In addition, the “Ke, Naloxone” value in series [5] was 137 nM. Moreover, the ED50 in series [6] stood at 0.035 mg/kg. In series [7], the “receptor selectivity of agonist (κ)” value was “selective agonists for κ receptors” and the “Ke, norBNI” value was determined as 0.303 nM. In series [8], this molecule yielded an ED (200% urine output) of 0.0429 mg/kg and an ED (500% urine output) of 0.762 mg/kg.
Regarding `COc1cccc(C#CC(=O)N(C)[C@@H]2CC[C@@]3(O)[C@H]4Cc5ccc(O)c6c5[C@@]3(CCN4CC3CC3)[C@H]2O6)c1.O=C(O)C(O)C(O)C(=O)O` [Compound 173, 17-cyclopropylmethyl-3,14β-dihydroxy-4,5α-epoxy-6β-[N-methyl-3-(3-methoxyphenyl)propiolamido]morphinan tartrate], the pIC50 in series [3] was 10.70. The “Ke, NTI” value in series [4] (setting [9]) worked out at 21.3 nM. Besides, the “Ke, Naloxone” value in series [5] worked out at 19.6 nM. The 50% effective dose (ED50) in series [6] stood at 0.011 mg/kg. In series [7], the “receptor selectivity of agonist (κ)” value is “selective agonists for κ receptors” and the “Ke, norBNI” value came out at 0.11 nM. In series [8], this molecule displayed an ED (200% urine output) of 0.0275 mg/kg and an ED (500% urine output) of 1.55 mg/kg.
